What follows are compounds tested against Oxytocin receptor (Cavia porcellus) (assay: Inhibition of radioligand [3H]OT binding to oxytocin receptor (OT) in guinea pig myometrium membrane).

| Kd [nM] | Structure (SMILES) |
| --- | --- |
| 18 | CC[C@H](C)[C@@H]1NC(=O)[C@@H](Cc2ccc(OC)cc2)NC(=O)CC2(CCCCC2)SSC[C@@H](C(=O)N(C)CC(=O)N[C@@H](CCCN=C(N)N)C(=O)NCC(N)=O)NC(=O)[C@H](CC(N)=O)NC(=O)[C@H](CCC(N)=O)NC1=O [[Mca1,D-Tyr(OMe)2,Sar7]AVT] |
| 21 | CCOc1ccc(C[C@H]2NC(=O)CC3(CCCCC3)SSC[C@@H](C(=O)N(C)CC(=O)N[C@@H](CCCN=C(N)N)C(=O)NCC(N)=O)NC(=O)[C@H](CC(N)=O)NC(=O)[C@H](CCC(N)=O)NC(=O)[C@H](Cc3ccccc3)NC2=O)cc1 [[Mca1,D-Tyr(OEt)2,Sar7]AVP] |
| 7 | CN(CC(=O)N[C@@H](CCCNC(=N)N)C(=O)NCC(N)=O)C(=O)[C@@H]1CSSC2(CCCCC2)CC(=O)N[C@@H](Cc2ccccc2)C(=O)N[C@@H](Cc2ccccc2)C(=O)N[C@@H](CCC(N)=O)C(=O)N[C@@H](CC(N)=O)C(=O)N1 [[Mca1,D-Phe2,Sar7]AVP] |
| 15 | CCOc1ccc(C[C@H]2NC(=O)CC3(CCCCC3)SSC[C@@H](C(=O)N(C)CC(=O)N[C@@H](CCCN=C(N)N)C(=O)NCC(N)=O)NC(=O)[C@H](CC(N)=O)NC(=O)[C@H](CCC(N)=O)NC(=O)[C@H]([C@@H](C)CC)NC2=O)cc1 [[Mpa1,D-Tyr(OEt)2,Sar7]AVT] |
